Experimental data published in patent US10723770B2, “Crystal structure of the large ribosomal subunit from S. aureus” (Yeda Research and Development Co. Ltd., priority 2015, dated 2020).
≈ marks a conversion by molar mass, not a printed value.

Columns and labels:
[1] = system: SA ribosomes; experiment: S. aureus cell free in vitro transcription-translation assay (luciferase reporter); format: biochemical, Staphylococcus aureus; details: for IC50, inhibition of protein synthesis: luciferase luminescence, S. aureus system
Description: The SA ribosomes activity was tested and its level was determined in a bacterial coupled transcription/translation assay system which measures the expression of the luciferase gene, according to Murray, R. W. et al. [Antimicrobial agents and chemotherapy, 2001, 45(6), p. 1900-1904]. Briefly, the luciferase gene was inserted into plasmid with T7 RNA polymerase promoter. The 30 μl reaction's volume contained 160 mM Hepes-KOH buffer (pH 7.5), 6.5% PEG 8K, 0.074 mg/ml tyrosine, 1.3 mM ATP, 0.86 mM CTP, GTP and UTP, 208 mM potassium glutamate, 83 mM creatine phosphate, 28 mM NH4OAc, 0.663 mM cAMP, 1.8 mM DTT, 0.036 mg/ml folinic acid, 0.174 mg/ml E. coli tRNA mix, 1 mM amino acid, 0.25 mg/ml creatine kinase, 0.027 mg/ml T7 RNA polymerase, ribosome free E. coli cell free extract, 300 nM of SA ribosomes and 0.003 μg/μl luciferase plasmid.
The reaction mixture was incubated at 37° C. for 1 hour, and erythromycin was added at a final concentration of 8 μM in order to terminate the reaction. 50 μl of Luciferin Assay Reagent (LAR, Promega) was added to the mixture and luminescence was measured in order to quantify the reaction's products.
FIGS. 20A-B present the results of in vitro transcription-translation cell-free inhibition assays of bacterial protein synthesis, wherein the inhibitory effect on protein expression in S. aureus system of BC-3205 is presented in FIG. 20A and of lefamulin is presented in FIG. 20B. The activity of the reporter protein (luciferase) in the presence of various concentrations of BC-3205 and lefamulin is shown as arbitrary unit of luminescence [a.u.].

[2] = system: Staphylococcus aureus; details: cited from earlier work

| Structure (SMILES) | IC50, inhibition of protein synthesis [1] | MIC against SA [2] | potency against SA relative to linezolid ([2]; more potent than linezolid) | IC50 against S. aureus ribosome compared to E. coli ones ([1]; in words only, data not shown) |
| --- | --- | --- | --- | --- |
| C=C[C@]1(C)C[C@@H](OC(=O)CS[C@H]2CCCN(C(=O)[C@H](N)C(C)C)C2)[C@]2(C)[C@H](C)CC[C@]3(CCC(=O)[C@H]32)[C@@H](C)[C@@H]1O [BC-3205] | 0.42 µg/mL | 0.06 µg/mL (≈ 0.104 µM) | 16-32 fold |  |
| C=C[C@]1(C)C[C@@H](OC(=O)CS[C@@H]2CC[C@@H](N)C[C@H]2O)[C@]2(C)[C@H](C)CC[C@]3(CCC(=O)[C@H]32)[C@@H](C)[C@@H]1O [lefamulin] | 0.09 µg/mL |  |  |  |
| CCC[C@@H]1C[C@@H](C(=O)N[C@@H]([C@H]2O[C@H](SC)[C@H](O)[C@@H](O)[C@H]2O)[C@@H](C)O)N(C)C1 [lincomycin] |  |  |  | super low IC50 |
